# According to patent US20090306200A1, “Prophylactic or Therapeutic Agent for Nocturnal Conduct Disorder Associated With Dementia” (Takeda Pharmaceutical Company Limited, priority 2005, published 2009):
# Marks after values point to notes of the source that are not given here.
# System: SAMP8/Ta Slc mice
# Test: Measurement of rotational motor activity in mouse (turning wheel; motor activity in light period)
# Format: in vivo
# Details: for Motor Activity in light period, % of Pre: Pre value = 100%; for Motor Activity in light period, %: n = 9
# Protocol: Animals: SAMP8/Ta Slc mice (16 weeks old), and SAMR1/Ta Slc mice (16 weeks old) as control mouse were used. After breeding in a rearing room, they were used after the age of 6-month-old to 8-month-old. A sole isolation breeding was conducted during the breeding. AB system of Neuroscience Co. was used for measurement. The mice were put in separate cages, and the turning wheel's rotation number for every minute by mouse was measured, and the data was analyzed as a motor activity for every hour. A turning wheel was equipped in the cage for measurement. The number in which the mouse rotated the turning wheel was automatically counted every minute with AB system (Neuroscience Co.), and recorded with time course as an amount of movement (motor activity). Using the total value of turning wheel's rotation number in habituation stage, each group was evenly grouped. Compound A was dissolved in water for injection, and water for injection was used as a vehicle. The solution and vehicle were administered as drinking water, respectively. The drinking water was replaced with new one every week. Pre: Habituation period (1 week) First week: Vehicle/Compound A 0.1-0.2 mg/kg/day Second week: Vehicle/Compound A 0.1-0.2 mg/kg/day Third week: Vehicle/Compound A 1-2 mg/kg/day Fourth week: Vehicle/Compound A 1-2 mg/kg/day Fifth week: Vehicle/Compound A 1-2 mg/kg/day The number of rotational movement which was automatically counted every minute by AB system (Neuroscience Co.) was tallied for every hour. Calculation was carried out according to the following sequences. (i) By calculating according to the following mathematical formula: (rotational motor activity in light period of a day)/(rotational motor activity in light period of a day+rotational motor activity in dark period of a day)×100, motor activity % in light period was determined. (ii) The mean value of motor activity % in light period was calculated for every week, and was made a representative value for every week. (iii) In addition, in case that the value of Pre was made 100%, rate of change of motor activity % in light period after administration was shown as % of Pre value. Statistical analysis was performed with t-test or Paired t-test for vehicle administration group and compound A administration group of SAMP8.
# [1] = 1st week, Compound A 0.1-0.2 mg/kg/day in drinking water
# [2] = 2nd week, Compound A 0.1-0.2 mg/kg/day in drinking water
# [3] = 3rd week, Compound A 1-2 mg/kg/day in drinking water
# [4] = 4th week, Compound A 1-2 mg/kg/day in drinking water
# [5] = 5th week, Compound A 1-2 mg/kg/day in drinking water
smiles,measurement,setting,value
"CCC(=O)NCC[C@@H]1CCc2ccc3c(c21)CCO3 [Compound A, (S)—N-[2-(1,6,7,8-tetrahydro-2H-indeno[5,4-b]furan-8-yl)ethyl]propionamide]",abnormal behavior in light period of SAMP8,0.1-0.2 then 1-2 mg/kg/day in drinking water,inhibit dose-dependently
same,"Motor Activity in light period, % of Pre",[1],97.67 % of Pre
same,"Motor Activity in light period, %",[1],30.95%
same,"Motor Activity in light period, % of Pre",[2],79.60 % of Pre
same,"Motor Activity in light period, %",[2],24.58%
same,"Motor Activity in light period, % of Pre",[3],70.25** % of Pre
same,"Motor Activity in light period, %",[3],22.82* %
same,"Motor Activity in light period, % of Pre",[4],74.77* % of Pre
same,"Motor Activity in light period, %",[4],23.75* %
same,"Motor Activity in light period, % of Pre",[5],71.64* % of Pre
same,"Motor Activity in light period, %",[5],21.18** %
same,change of the motor activity % in light period and the % of Pre value compared to the vehicle administered group,"first and second week, 0.1-0.2 mg/kg/day in drinking water",there was not observed a change
same,motor activity % in light period and the % of Pre value compared to the vehicle-administered group,"third to fifth week, 1-2 mg/kg/day in drinking water",decreased
